Source: patent US9879278B2, “Non-viral episomal suicide construct” (WAKE FOREST UNIVERSITY HEALTH SCIENCES, priority 2012, dated 2018)
Values joined by “and” are separate entries in the source; they are usually repeats but may differ in a detail not shown here. Identical values can stand only once. “Also recorded” adds a separate entry of the source.

Tests used:
[1] = tested on: NCCIT cells; test: Flow cytometry of OCT4-expressing cells after RA and ganciclovir; type: cell-based, human
Protocol: (§1) One aliquot of cells was maintained in differentiation medium containing 2 μmol/L ganciclovir for 7 days (for in vitro immuno-analysis) or 14 days (for in vivo tumor formation). As a negative control, counterpart cells were grown in differentiation medium containing 0.1% DMSO in which ganciclovir is dissolved.
(§2) Cells were trypsinized and about 5×10^5 cells were fixed in 2% paraformaldehyde for 10 min at room temperature. Cells were pelleted and permeabilized by resuspension with vigorous vortexing in 500 μl iced-cold methanol and incubated at 4° C. for at least 10 min. After 3 washes with staining buffer (PBS with 1% BSA), the cells were resuspended in 100 μl OCT4 antibody (Santa Cruz Biotechnology), diluted to 1:100 with staining buffer, and incubated for 30 min at 4° C. The cells were washed 3 times with staining buffer and incubated in 1:300 diluted Cy5-conjugated goat anti-mouse Fab for 30 min at 4° C. The cells were assessed for OCT4 expression using a BD FACSCalibur cytometer (BD Biosciences) with CellQuest software.

[2] = tested on: NCCIT (pSuicide) cells; test: as above; type: cell-based, human
Protocol: as §1, §2

[3] = tested on: HeLa (pSuicide) cells; test: Cell survival under ganciclovir treatment; type: cell-based
Protocol: (§3) NCCIT and HeLa cells with and without pSuicide episomal DNA were treated with and without 2 μmol/L ganciclovir. Cell numbers and morphology were compared 7 days after treatment.

[4] = tested on: RA-differentiated NCCIT(pSuicide) cells; test: Tumor development from RA-differentiated NCCIT(pSuicide) cells with or without in vitro ganciclovir selection; type: in vivo, SCID mice
Protocol: as §1
Trypsinized cells washed in PBS were resuspended in ice-cold PBS containing 30% BD Matrigel (BD Biosciences), drawn into an ice-cold 1-mL syringe, and kept on ice for subcutaneous injection into 8-˜12-week-old female immunodeficient SCID mice (Charles River Laboratories, Wilmington, Mass.) as previously described (Prokhorova et al., 2009, Stem Cells Dev 2009; 18:47-54). For undifferentiated NCCIT and NCCIT (pSuicide) cells, 1.5×10^6 cells in 100 μl volume were injected for each mouse. For differentiated NCCIT (pSuicide) cells, 3×10^6 cells were injected.
(§4) When tumors reached about 8 mm in size, ganciclovir (50 mg/kg body weight) was delivered intraperitoneally daily for 2-3 weeks. Each tumor was regarded as a prolate spheroid and the greatest longitudinal diameter (L) and greatest transverse diameter (B) were monitored with a caliper every 2 days by the same person. The two dimensions were to lie perpendicular to each other in a plane tangential to the body wall. Tumor size was estimated from the formula V=½(L×B^2) as previously described (Euhus et al., 1986, J Surg Oncol 31:229-34). The size of tumors formed by NCCIT and NCCIT (pSuicide) cells was compared by analysis of variation (ANOVA), setting as 1 the volume on the day ganciclovir was first delivered.

[5] = tested on: NCCIT cells; test: OCT4 immunofluorescence of RA-differentiated cells with ganciclovir
[6] = tested on: NCCIT (pSuicide) cells; test: as above; type: cell-based, human
Protocol: as §1
Briefly, differentiated NCCIT cells growing on chamber slides were fixed in 4% PFA for 15 min at room temperature and permeabilized in 0.2% Triton X-100/PBS for 10 min. After blocking with 10% horse serum, cells were incubated with 3%0/horse serum diluted (1:50) OCT4 antibody (Santa Cruz Biotechnology) for 1 h at room temperature, followed by three washes in PBS-T (0.1% Tween 20 in phosphate-buffered saline). […] Images were captured under a fluorescent microscope.

[7] = tested on: NCCIT (pSuicide) cells; test: Cell survival under ganciclovir treatment; type: cell-based, human
Protocol: as §3

[8] = tested on: tumors from NCCIT (pSuicide) cells; test: In vivo ganciclovir treatment of tumors; set-up: species or system SCID mice
Protocol: as §4, with “Trypsinized cells washed in PBS were resuspended in ice-cold PBS containing 30% BD Matrigel (BD Biosciences), drawn into an ice-cold 1-mL syringe, and kept on ice for subcutaneous injection into 8-˜12-week-old female immunodeficient SCID mice (Charles River Laboratories, Wilmington, Mass.) as previously described (Prokhorova et al., 2009, Stem Cells Dev 2009; 18:47-54). For undifferentiated NCCIT and NCCIT (pSuicide) cells, 1.5×10^6 cells in 100 μl volume were injected for each mouse. For differentiated NCCIT (pSuicide) cells, 3×10^6 cells were injected. When” for “When”

[9] = tested on: tumors from NCCIT cells; test: In vivo ganciclovir treatment of tumors; set-up: species or system SCID mice
Protocol: as §4, with “Trypsinized cells washed in PBS were resuspended in ice-cold PBS containing 30% BD Matrigel (BD Biosciences), drawn into an ice-cold 1-mL syringe, and kept on ice for subcutaneous injection into 8-˜12-week-old female immunodeficient SCID mice (Charles River Laboratories, Wilmington, Mass.) as previously described (Prokhorova et al., 2009, Stem Cells Dev 2009; 18:47-54). For undifferentiated NCCIT and NCCIT (pSuicide) cells, 1.5×10^6 cells in 100 μl volume were injected for each mouse. For differentiated NCCIT (pSuicide) cells, 3×10^6 cells were injected. When” for “When”

[10] = tested on: NCCIT cells; test: Western blotting of OCT4A after RA-induced differentiation and ganciclovir; type: cell-based, human; details: ganciclovir added to RA-induced NCCIT cells
Protocol: as §1
(§5) Cells were lysed in RIPA buffer with protease inhibitors (0.5 mmol/L PMSF and 1×Complete Protease Inhibitor Cocktail from Roche) for SDS-PAGE and Western blotting analyses. Monoclonal anti-β-actin antibody was from Sigma and used at 1:5000 (St Louis, Mo.). Rabbit anti-HSV thymidine kinase antiserum was obtained from Dr. William Summers of Yale University (1:5000); anti-OCT4A antibody was from Santa Cruz Biotechnology (Santa Cruz, Calif.) and used at 1:1000. Horseradish peroxidase (HRP)-conjugated secondary antibodies (1:1000) were purchased from Pierce (Rockford, Ill.). Chemiluminescent reagents from Pierce were used to visualize the protein signals on an LAS-3000 imaging system (Fujifilm). The Integrated Density function (Image J software) was used to quantify the expression of individual proteins after normalized by β-actin.

[11] = tested on: NCCIT (pSuicide) cells; test: as above; type: cell-based, human; details: RA-induced NCCIT (pSuicide) cells treated with ganciclovir
Protocol: as §1, §5

[12] = 2 μmol/L ganciclovir for 7 days
[13] = 3 × 10^6 cells/mouse, SCID mice

Nc1nc(O)c2ncn(COC(CO)CO)c2n1 [ganciclovir]
percentage of OCT4A-positive cells ([1]; RA-treated NCCIT cells after ganciclovir treatment): 30.18%±2.46% | percentage of OCT4A-positive cells ([2]; RA-treated NCCIT (pSuicide) cells after ganciclovir treatment): 2.27%±0.12% | cell killing [3, 12]: not | proliferation ([3]; ganciclovir treatment): not affected and not | mice that developed tumors of mice injected with ganciclovir-treated cells ([4]; cells treated with ganciclovir for 14 days before injection, 3 months after injection): 1 of 12 and 1/14 | elimination of OCT4A-positive cells ([5]; 2 μmol/L ganciclovir for 7 days after 10 days RA): did not eliminate | elimination of OCT4A-positive cells ([6]; 2 μmol/L ganciclovir for 7 days after 10 days RA, NCCIT (pSuicide) cells): eliminated | cells with nuclear staining of OCT4A antibody ([6]; 1670 immunostained ganciclovir-treated NCCIT (pSuicide) cells examined): none | cell killing [7, 12]: killed | proliferation ([7]; ganciclovir treatment): affected | Tumors responded to ganciclovir ([8]; NCCIT(pSuicide)-derived tumors, ganciclovir 50 mg/kg intraperitoneally daily): 4/4 | tumor growth ([8]; tumors from NCCIT (pSuicide) cells, ganciclovir 50 mg/kg i.p. daily for two weeks): stopped growing; also recorded: inhibited growth | tumor growth ([8]; two mice with tumors from differentiated NCCIT (pSuicide) cells treated with ganciclovir): inhibited | Tumors responded to ganciclovir ([9]; NCCIT-derived tumors, ganciclovir 50 mg/kg intraperitoneally daily): 0/7 | tumor growth ([9]; tumors from NCCIT cells, ganciclovir 50 mg/kg i.p. daily for two weeks): continued to grow and not | OCT4A expression [10]: did not reduce | OCT4A expression [11]: undetectable

CC1=C(/C=C/C(C)=C/C=C/C(C)=C/C(=O)O)C(C)(C)CCC1 [RA, retinoic acid]
OCT4A-positive cells ([1]; after RA induction, NCCIT cells): 40-60% | percentage of OCT4A-positive cells ([2]; RA-treated NCCIT (pSuicide) cells before ganciclovir treatment): 59.10%±0.5% | OCT4A-positive cells ([2]; after RA induction, NCCIT (pSuicide) cells): 40-60% | No. mice with tumor 0-3 Months postinjection [4, 13]: 6 | No. mice with tumor 3-5 Months postinjection [4, 13]: 1 | No. mice with tumor Total [4, 13]: 7 | cells induced to differentiate (OCT4A-negative) ([5]; 20 μmol/L retinoic acid): about 50% | cells induced to differentiate (OCT4A-negative) ([6]; 20 μmol/L retinoic acid, NCCIT (pSuicide) cells): about 50%
